Measured values taken from patent publication US12637474B2, “Five-membered heteroaromatic imidazole compound and use thereof” (Hangzhou Sciwind Biosciences Co., Ltd, priority 2020, dated 2026).
Values belong to the molecule of their own block, whether it stands above or below them.

Key:
Human-GLP1 = molecular target: T1, Human-GLP1 (Homo sapiens, UniProt P43220); assay: In vitro cell activity test (cAMP detection, GLP-1 HEK293 cells); format: cell-based; conditions: HEK293 cells expressing GLP-1 target
T1 construct: the earlier reading says HEK293
Experimental: Experimental Embodiment 1. In Vitro Cell Activity Test
The cell was constructed by Shanghai WuXi AppTec New Pharmaceutical Development Co., Ltd. The detailed information is as follows.
The compound was formulated to a working concentration of 30 μM with DMSO. In this experiment, the amount of each sample used was 5 μL.
The pH value was adjusted to 7.4 and diluted to 25 mL with HBSS 1×.
Preparation of cAMP detection reagent, 250 μL of cAMP-D2 and 250 μL of anti-cAMP cryptate reagent were added to 4 mL of lysis buffer, and the mixture was mixed gently.
The compound to be tested was 3-fold diluted at 10 points, the initial concentration was 30 μM, and the dilution was completed and treated by Bravo.
The reference compound exenatide was 3-fold diluted at 10 points, the initial concentration was 500 nM, and the dilution was completed and treated by Bravo.
• 1) 100 nL of the compound was transferred to OptiPlate-384 plate using Echo. • 2) The OptiPlate-384 plate was centrifuged at 1000 rpm for 5 seconds. c) Preparation of Cell Suspension • 1) A cryopreservation tube of GLP-1 cells was quickly thawed in 37° C. warm water. • 2) The cell suspension was transferred to a Transfer 15 mL centrifuge tube, and rinsed gently with 10 mL of HBSS. • 3) The centrifuge tube was centrifuged at 1000 rpm for 1 minute at room temperature. • 4) The supernatant was discarded. • 5) The bottom cells were gently homogenized and then gently rinsed with 10 mL of HBSS, centrifuged and settled, the cells were finally re-suspend with experimental buffer. • 6) Cell density and activity were measured by Vi-cell. • 7) The concentration of GLP-1 cells was diluted to 2.0*10^5/mL with experimental buffer. • 8) […] of diluted cell suspension was transferred into OptiPlate-384 plate. • 9) The cells was incubated at room temperature for 30 minutes. d) Detection Reagent was Added: • 1) 10 μL of 800 nM gradient diluted cAMP standard was added to the empty well of OptiPlate-384 plate. • 2) 10 μL of cAMP detection reagent was added. • 3) The OptiPlate-384 plate was covered with TopSeal-A film and incubated at room temperature for 60 minutes.
TopSeal-A was removed and read by EnVision.

DMPK study in mice = format: in vivo; conditions: male C57 mice, plasma; for Oral DNAUC / Cmax / bioavailability: oral 5 mg/kg; for Oral DNAUC: DNAUC=AUCPO/Dose; for half-life / Cmax / bioavailability / clearance / Vd: mouse; for half-life: oral, 5 mg/kg; for half-life / clearance / Vd: single dose; for Vd: read-out: Vdss
Experimental: Male C57 mice were used as test animals, after a single dose, the plasma concentration of the compound was determined and the pharmacokinetic behavior was evaluated.
Three healthy adult male C57 mice were selected as oral group. In the oral group, the solvent was 20% PEG400/10% solutol/70% water, the compounds to be tested were mixed with the solvent, the mixture was votexed and sonicated to prepare a 0.5 mg/mL clear solution. After oral administration of 5 mg/kg, the whole blood of mice was collected for a certain period of time, and the plasma was prepared, the drug concentration was analyzed by LC-MS/MS, and the pharmacokinetic parameters were calculated by Phoenix WinNonlin software (Pharsight Company, USA).
Note: -- refers to untested; PEG refers to polyethylene glycol; solutol refers to polyethylene glycol-15 hydroxystearate; Cmax refers to maximum concentration; DNAUC=AUCPO/Dose, AUCPO refers to oral exposure and Dose refers to drug dose; Vdss refers to distribution volume; Cl refers to clearance rate; T1/2 refers to half-life.

[1] = DMPK study in cynomolgus monkey; format: in vivo; conditions: male cynomolgus monkey, plasma; for Cmax / Oral DNAUC / bioavailability: oral 3 mg/kg; for Vd: read-out: Vdss
Experimental: Male cynomolgus monkey were used as test animals, after a single dose, the plasma concentration of the compound was determined and the pharmacokinetic behavior was evaluated.
Two healthy male cynomolgus monkeys were selected as the oral group. The solvent of the oral group was 20% PEG 400+10% solutol+70% water. The compounds to be tested were mixed with the solvent, the mixture was votexed and sonicated to prepare a 0.5 mg/mL approximately clear solution. The oral dosage of cynomolgus monkeys was 3 mg/kg, after oral administration, the whole blood of cynomolgus monkeys was collected for a certain period of time, and the plasma was prepared, the drug concentration was analyzed by LC-MS/MS, and the pharmacokinetic parameters were calculated by Phoenix WinNonlin software (Pharsight Company, USA).

hERG potassium channel = molecular target: T2, hERG potassium channel (Homo sapiens, UniProt Q12809); assay: hERG test (automatic patch clamp, CHO-hERG cells); format: cell-based; conditions: hERG current; for IC50: Qpatch; for Maximum concentration inhibition rate (%): highest test concentration 40 μM
T2 construct: expressed in transfected cells; host or cells: CHO-hERG cells
Experimental: The effects of compounds on the current of hERG potassium channel (human Ether-a-go-go Related Gene potassium channel) were measured by the automatic patch clamp method.
CHO-hERG cells were cultured in a 175 cm^2 flask, when the cell density reached 60-80%, the culture medium was removed, the cells were washed once with 7 mL of PBS (Phosphate Buffered Saline), and then detached with 3 mL of Detachin. After digestion was completed, 7 mL of culture medium was added to neutralize, then the mixture was centrifuged, the supernatant was aspirated, and then 5 mL of culture medium was added to re-suspend, ensuring 2-5×10^6/mL of cell density.
Extracellular fluid formulation (mM): 140 NaCl, 5 KCl, 1 CaCl2, 1.25 MgCl2, 10 HEPES and 10 Glucose, the pH value was adjusted to 7.4 with NaOH.
Intracellular fluid formulation (mM): 140 KCl, 1 MgCl2, 1 CaCl2, 10 EGTA and 10 HEPES, the pH value was adjusted to 7.2 with KOH.
The process of single cell high impedance sealing and whole cell mode formation were all automatically completed by Qpatch instrument, after obtaining the whole cell recording mode, the cells were clamped at −80 mV, before giving a 5-second+40 mV depolarization stimulus, a 50 millisecond −50 mV prevoltage was given first, and then repolarized to −50 mV for 5 seconds, then returned to −80 mV. This voltage stimulation was applied every 15 seconds and after recording for 2 minutes, extracellular fluid was recordings for 5 minutes, and then the administration process was started, the compound concentration was given from the lowest test concentration, each test concentration was given for 2.5 minutes, and 3 μM of Cisapride as the positive control compound was given after all concentrations were continuously given. At least 3 cells (n>3) were tested at each concentration.
The mother liquor of the compound was diluted with DMSO, and 10 μL of mother liquor of the compound was added to 20 μL of DMSO solution, and was 3-fold diluted continuously to 6 DMSO concentrations. 4 μL of compounds with 6 DMSO concentrations were added to 396 μL of extracellular fluid, 100-fold diluted to 6 intermediate concentrations, and then 80 μL of the compounds with 6 intermediate concentrations were added to 320 μL of extracellular fluid, 5-fold diluted to the final concentration to be tested. The highest test concentration was 40 μM, in a total of 6 concentrations of 40, 13.3, 4.4, 1.48, 0.494 and 0.165 μM respectively. The content of DMSO in the final test concentration was not more than 0.2%, and this concentration of DMSO had no effect on hERG potassium channel. The whole dilution process of compound preparation was completed by Bravo instrument.
The experimental data were analyzed by GraphPad Prism 5.0 software. […]

[2] = Permeability test (MDR1-MDCKII monolayer cell model); format: in vitro ADME; conditions: dog, MDCK-MDR1, incubation 150 min; for Papp B→A at 150 min, 2 μM: basal end to top; for Papp A→B at 150 min, 2 μM: top to basal end
Experimental: (§1) The objective of this study was to determine the bidirectional permeability and efflux rate of the samples by using MDR1-MDCKII monolayer cell model.
(§2) MDR1-MDCKII cells (11th generation) were inoculated into 96-well cell culture plate and cultured continuously for 4-7 days for transport experiment. The sample was administered in both directions at a concentration of 2.00 μM. After incubation for 150 min, the sample was collected and the content of the test product in the sample was determined by liquid chromatography-tandem mass spectrometry (LC-MS/MS).
(§3) When the administration concentration was 2.00 μM, the average apparent permeability coefficient (Papp) of the test product from the top to the basal end (A-B) direction, the average apparent permeability coefficient from the basal end to the top (B-A) direction, and the efflux ratio (ER) are shown in Table 5. Note: The boundaries of low and high permeability grades were equivalent to 50% and 80% of human “calculated Fa”. The grading criteria were based on WuXi AppTec's routine MDR1-MDCK II permeability test (test concentration was 2 μM, incubation for 2.5 hours).

MDR1 (P-gp) = assay: as above; format: in vitro ADME; conditions: dog, MDCK-MDR1, incubation 150 min, read-out: Efflux rate
Experimental: as §1, §2, §3

MDR1-MDCKII cells = assay: as above; format: in vitro ADME; conditions: 2.00 μM, low/high boundaries equivalent to 50% and 80% of human calculated Fa
Experimental: as §1, §2, §3

T1 sequence (P43220 24-463): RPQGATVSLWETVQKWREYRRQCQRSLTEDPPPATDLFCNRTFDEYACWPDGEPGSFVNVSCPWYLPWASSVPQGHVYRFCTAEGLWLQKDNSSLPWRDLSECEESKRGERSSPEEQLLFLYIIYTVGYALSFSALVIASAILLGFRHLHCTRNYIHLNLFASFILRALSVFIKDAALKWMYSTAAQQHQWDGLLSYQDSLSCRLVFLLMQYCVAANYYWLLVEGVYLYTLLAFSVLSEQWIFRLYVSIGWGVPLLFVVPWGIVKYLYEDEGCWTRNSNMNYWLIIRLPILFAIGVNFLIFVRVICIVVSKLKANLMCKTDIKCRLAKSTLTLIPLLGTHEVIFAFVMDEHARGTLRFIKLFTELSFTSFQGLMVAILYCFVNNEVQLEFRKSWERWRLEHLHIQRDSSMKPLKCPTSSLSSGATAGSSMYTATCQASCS
T2 sequence (Q12809 whole entry): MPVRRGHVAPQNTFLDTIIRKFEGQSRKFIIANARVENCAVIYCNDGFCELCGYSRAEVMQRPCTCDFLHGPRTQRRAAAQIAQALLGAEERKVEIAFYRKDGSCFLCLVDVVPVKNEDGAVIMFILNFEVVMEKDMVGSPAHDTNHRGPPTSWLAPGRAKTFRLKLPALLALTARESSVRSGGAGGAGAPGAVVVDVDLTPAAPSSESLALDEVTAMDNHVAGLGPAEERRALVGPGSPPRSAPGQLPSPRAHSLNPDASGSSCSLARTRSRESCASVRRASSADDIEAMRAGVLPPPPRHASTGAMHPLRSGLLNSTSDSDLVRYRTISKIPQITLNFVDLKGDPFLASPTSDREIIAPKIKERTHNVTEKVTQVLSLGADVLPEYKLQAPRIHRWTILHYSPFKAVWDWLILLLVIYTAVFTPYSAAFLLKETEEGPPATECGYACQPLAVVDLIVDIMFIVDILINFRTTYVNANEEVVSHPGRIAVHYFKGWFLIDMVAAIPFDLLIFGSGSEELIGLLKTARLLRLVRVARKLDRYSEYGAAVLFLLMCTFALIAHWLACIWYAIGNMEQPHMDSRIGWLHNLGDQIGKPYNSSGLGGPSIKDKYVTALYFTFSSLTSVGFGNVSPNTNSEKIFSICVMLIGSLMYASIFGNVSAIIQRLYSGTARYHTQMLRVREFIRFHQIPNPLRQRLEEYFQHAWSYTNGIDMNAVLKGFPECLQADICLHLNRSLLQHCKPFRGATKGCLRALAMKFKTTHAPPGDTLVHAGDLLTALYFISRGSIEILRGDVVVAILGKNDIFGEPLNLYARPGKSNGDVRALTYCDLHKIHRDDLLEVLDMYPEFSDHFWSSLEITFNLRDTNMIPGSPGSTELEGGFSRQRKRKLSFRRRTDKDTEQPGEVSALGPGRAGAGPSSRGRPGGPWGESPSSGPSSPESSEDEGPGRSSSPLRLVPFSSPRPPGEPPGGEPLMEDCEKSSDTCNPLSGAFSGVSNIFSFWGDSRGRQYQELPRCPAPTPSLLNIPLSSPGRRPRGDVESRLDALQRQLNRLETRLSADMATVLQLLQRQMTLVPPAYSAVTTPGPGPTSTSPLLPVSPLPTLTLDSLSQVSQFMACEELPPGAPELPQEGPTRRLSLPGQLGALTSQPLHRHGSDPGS

Structure (SMILES): N#Cc1ccc(COc2cccc(C3=CCN(Cc4nc5cc(C(=O)O)sc5n4C[C@@H]4CCO4)CC3)n2)c(F)c1 [WXA002]
EC50 (Human-GLP1): 2.7 nM

Structure (SMILES): O=C(O)c1cc2c(nc(CN3CC=C(c4ccc(F)c(OCc5ccc(Cl)cc5F)n4)CC3)n2C[C@@H]2CCO2)s1 [WXA015]
EC50 (Human-GLP1): 1.64 nM

Structure (SMILES): Cc1c(C(=O)O)sc2nc(CN3CC=C(c4cccc(OCc5ccc(Cl)cc5F)n4)CC3)n(C[C@@H]3CCO3)c12 [WXA008]
EC50 (Human-GLP1): 2.46 nM

Structure (SMILES): N#Cc1ccc(COc2cccc(C3CCN(Cc4nc5sc(C(=O)O)cc5n4C[C@@H]4CCO4)CC3)n2)c(F)c1 [WXA003]
EC50 (Human-GLP1): 1.07 nM

Structure (SMILES): O=C(O)c1cc2c(nc(CN3CC=C(c4cccc(OCc5ccc(Cl)cc5F)n4)CC3)n2C[C@@H]2CCO2)s1 [WXA005]
Oral DNAUC (DMPK study in mice): 301.8 nM.h/mpk
half-life (DMPK study in mice): 2.47 h
bioavailability (DMPK study in mice): 63%
clearance (DMPK study in mice): 63.6 mL/min/kg
Vd (DMPK study in mice): 2.84 L/kg
Cmax (DMPK study in mice): 835 nM
Cmax [1]: 245 nM
Oral DNAUC [1]: 889 nM.h/mpk
half-life ([1]; oral, 3 mg/kg, single dose): 4.94 h
bioavailability [1]: 31%
clearance ([1]; single dose): 10.7 mL/min/kg
Vd ([1]; single dose): 0.59 L/kg
IC50 (hERG potassium channel): > 40000 nM
Maximum concentration inhibition rate (%) (hERG potassium channel): 33.1%
Papp B→A at 150 min, 2 μM [2]: 8.49 ×10⁻⁶ cm/s
Papp A→B at 150 min, 2 μM [2]: 7.19 ×10⁻⁶ cm/s
efflux ratio at 150 min, 2 μM (MDR1 (P-gp)): 1.18
Rank (permeability grade) (MDR1-MDCKII cells): High

Structure (SMILES): O=C(O)c1sc2nc(CN3CC=C(c4cccc(OCc5ccc(Cl)cc5F)n4)CC3)n(C[C@@H]3CCO3)c2c1F [WXA007]
EC50 (Human-GLP1): 0.2 nM

Structure (SMILES): N#Cc1ccc(COc2cccc(C3CCN(Cc4nc5cc(C(=O)O)sc5n4C[C@@H]4CCO4)CC3)n2)c(F)c1 [WXA004]
EC50 (Human-GLP1): 1.9 nM

Structure (SMILES): N#Cc1ccc(COc2cccc(C3=CCN(Cc4nc5sc(C(=O)O)cc5n4C[C@@H]4CCO4)CC3)n2)c(F)c1 [WXA001]
EC50 (Human-GLP1): 0.67 nM
Oral DNAUC (DMPK study in mice): 647.4 nM.h/mpk
half-life (DMPK study in mice): 2.07 h
bioavailability (DMPK study in mice): 220%
clearance (DMPK study in mice): 104 mL/min/kg
Vd (DMPK study in mice): 1.87 L/kg
Cmax (DMPK study in mice): 1760 nM
Cmax [1]: 28.3 nM
Oral DNAUC [1]: 74 nM.h/mpk
bioavailability [1]: 5.6%
clearance ([1]; single dose): 22.7 mL/min/kg
Vd ([1]; single dose): 0.73 L/kg
IC50 (hERG potassium channel): > 40000 nM
Maximum concentration inhibition rate (%) (hERG potassium channel): 30.4%
Papp B→A at 150 min, 2 μM [2]: 3.87 ×10⁻⁶ cm/s
Papp A→B at 150 min, 2 μM [2]: 2.53 ×10⁻⁶ cm/s
efflux ratio at 150 min, 2 μM (MDR1 (P-gp)): 1.53
Rank (permeability grade) (MDR1-MDCKII cells): Medium

Second part, the molecule after the results:

EC50 (Human-GLP1): 3.52 nM
Structure (SMILES): O=C(O)c1cc2nc(CN3CC=C(c4ccc(F)c(OCc5ccc(Cl)cc5F)n4)CC3)n(C[C@@H]3CCO3)c2s1 [WXA016]

EC50 (Human-GLP1): 9.6 nM
Structure (SMILES): N#Cc1ccc(COc2cccc(C3=CCN(Cc4nc5cc(C(=O)O)sc5n4C[C@@H]4CCO4)CC3)c2)c(F)c1 [WXA014]

EC50 (Human-GLP1): 1.44 nM
Oral DNAUC (DMPK study in mice): 307.4 nM.h/mpk
half-life (DMPK study in mice): 1.43 h
Cmax (DMPK study in mice): 865 nM
Structure (SMILES): O=C(O)c1cc2nc(CN3CC=C(c4cccc(OCc5ccc(Cl)cc5F)n4)CC3)n(C[C@@H]3CCO3)c2s1 [WXA006]

EC50 (Human-GLP1): 2.46 nM
Structure (SMILES): N#Cc1ccc(COc2cccc(C3=CCN(Cc4nc5sc(C(=O)O)cc5n4C[C@@H]4CCO4)CC3)c2)c(F)c1 [WXA013]

EC50 (Human-GLP1): 9.4 nM
Structure (SMILES): O=C(O)c1cc2nc(CN3CC=C(c4cccc(OCc5ccc(Cl)cc5F)c4)CC3)n(C[C@@H]3CCO3)c2s1 [WXA012]

EC50 (Human-GLP1): 1.94 nM
Structure (SMILES): O=C(O)c1cc2c(nc(CN3CC=C(c4cccc(OCc5ccc(Cl)cc5F)c4)CC3)n2C[C@@H]2CCO2)s1 [WXA011]
